PubChem BioAssay (NCI)
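96-well plates; 48 h exposure; 5 concentrations. Endpoints by linear interpolation between flanking doses. Not reached: highest tested concentration assigned. At the TGI there is no net growth.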

Experiments:
Assay in all cases: NCI-60 cell line screen, 48 h
DU-145 prostate = tested on: DU-145 prostate
MDA-N = tested on: MDA-N
HCC-2998 colon = tested on: HCC-2998 colon
ACHN renal = tested on: ACHN renal
MDA-MB-231 breast = tested on: MDA-MB-231 breast
RXF 393 renal = tested on: RXF 393 renal
U251 CNS = tested on: U251 CNS
NCI-H23 lung = tested on: NCI-H23 lung
OVCAR-5 ovarian = tested on: OVCAR-5 ovarian
SK-MEL-28 melanoma = tested on: SK-MEL-28 melanoma
EKVX NSCLC = tested on: EKVX NSCLC
OVCAR-4 ovarian = tested on: OVCAR-4 ovarian
SF-539 CNS = tested on: SF-539 CNS
BT-549 breast = tested on: BT-549 breast
T-47D breast = tested on: T-47D breast
SF-268 CNS = tested on: SF-268 CNS
RPMI-8226 leukemia = tested on: RPMI-8226 leukemia
SW-620 colon = tested on: SW-620 colon
TK-10 renal = tested on: TK-10 renal
MCF7 breast = tested on: MCF7 breast

Compound | TGI (DU-145 prostate) [µM] | TGI (MDA-N) [µM] | TGI (HCC-2998 colon) [µM] | TGI (ACHN renal) [µM] | TGI (MDA-MB-231 breast) [µM] | TGI (RXF 393 renal) [µM] | TGI (U251 CNS) [µM] | TGI (NCI-H23 lung) [µM] | TGI (OVCAR-5 ovarian) [µM] | TGI (SK-MEL-28 melanoma) [µM] | TGI (EKVX NSCLC) [µM] | TGI (OVCAR-4 ovarian) [µM] | TGI (SF-539 CNS) [µM] | TGI (BT-549 breast) [µM] | TGI (T-47D breast) [µM] | TGI (SF-268 CNS) [µM] | TGI (RPMI-8226 leukemia) [µM] | TGI (SW-620 colon) [µM] | TGI (TK-10 renal) [µM] | TGI (MCF7 breast) [µM]
Cc1cc(S(=O)(=O)Nc2nnc3c(Cl)cc(C(F)(F)F)cn23)c(S)cc1Cl | > 100 | > 100 | > 100 | > 100 | > 100 | > 100 | > 100 | > 100 | > 100 | > 100 | > 100 | > 100 | > 100 | > 100 | > 100 | > 100 | > 100 | > 100 | > 100 | > 100
O=C(O)c1ccccc1/C=N\N(CCO)C1=NCCN1 | > 100 | > 100 | > 100 | > 100 | > 100 | > 100 | > 100 | > 100 | > 100 | > 100 | > 100 | > 100 | > 100 | > 100 | > 100 | > 100 | > 100 | > 100 | > 100 | > 100
CCOC(=O)CN1C(=O)c2c(NC(=O)C(=O)O)cccc2S1(=O)=O | > 100 | > 100 | > 100 | > 100 | > 100 | > 100 | > 100 | > 100 | > 100 | > 100 | > 100 | > 100 | – | > 100 | > 100 | > 100 | > 100 | > 100 | > 100 | > 100
COC(=O)CCc1cc(OC)c2oc(-c3ccc(OC)c(OC)c3)c(CO)c2c1 | > 100 | > 100 | > 100 | > 100 | > 100 | – | > 100 | > 100 | > 100 | > 100 | > 100 | > 100 | > 100 | > 100 | > 100 | > 100 | > 100 | > 100 | > 100 | > 100
CCOC(=O)C(CCSC)(CCSC)C(=O)OCC | > 100 | > 100 | > 100 | > 100 | > 100 | > 100 | > 100 | > 100 | > 100 | > 100 | > 100 | > 100 | > 100 | > 100 | > 100 | > 100 | > 100 | > 100 | > 100 | > 100
CCOC(=O)Cc1ccc(Nc2nc3cc(F)c(F)cc3nc2C(=O)OCC)cc1 | > 100 | > 100 | 69.6 | 33.5 | 9.08 | > 100 | > 100 | 66.5 | > 100 | > 100 | 56.4 | > 100 | > 100 | > 100 | > 100 | > 100 | > 100 | > 100 | > 100 | > 100
C[N+]1(C)C/C(=C\C=C\c2ccccc2)C(=O)/C(=C/C=C/c2ccccc2)C1 | 37.2 | 11.1 | 34.2 | > 100 | 36.1 | > 61.1 | 19.2 | 34.4 | 54.7 | 17 | > 87.4 | > 84.2 | 33.9 | 8.39 | 47.4 | 43.7 | 10.9 | 41.5 | > 67.1 | 38.4
Cc1c2c(n3c(nc4ccccc43)c1C#N)NCC2 | > 10 | > 10 | – | > 10 | > 10 | > 10 | > 10 | > 10 | > 10 | > 10 | > 10 | > 10 | > 10 | > 10 | > 10 | > 10 | > 10 | > 10 | > 10 | > 10
CC(=O)Oc1ccc(C)c2c1[C@H]1CC[C@]3(C)[C@@H](OC(C)=O)CC[C@H]3[C@@H]1CC2 | 66.6 | 36.8 | 32.8 | 29.8 | 33.9 | 35.4 | 29.1 | 34.7 | > 100 | 33.2 | 30.9 | – | 38 | 32 | 40.6 | 80.3 | 49.4 | 34.4 | 67.9 | 38.9
CC1=C(C(=O)NNC(=O)c2ccccc2O)CC(C(=O)NNC(=O)c2ccccc2O)=C(C)N1 | > 93.5 | > 100 | > 100 | > 88.7 | > 27.9 | > 100 | > 100 | > 100 | > 100 | > 100 | > 72.7 | > 100 | 41.8 | > 100 | > 32.6 | > 100 | > 100 | > 100 | > 100 | > 48.5
C/C1=C\CC[C@@]2(C)O[C@@H]2C[C@@H]2[C@H](C/C(C)=C/CC1)OC(=O)[C@]21CO1 | > 100 | > 100 | > 100 | > 100 | > 100 | > 100 | > 100 | > 100 | > 100 | > 100 | > 100 | > 100 | – | > 100 | > 100 | > 100 | > 100 | > 100 | > 100 | > 100
CCOC(=O)C12CCC(c3c(C)cccc3C)(O1)C(C(=O)OC)=C2C(=O)OC (centres undefined) | > 10 | 1.98 | > 10 | > 10 | 9.93 | > 10 | > 10 | > 8.69 | > 9.61 | > 10 | > 10 | > 10 | 4.76 | > 10 | > 10 | > 10 | > 10 | > 10 | > 10 | > 10
Cc1ccc(C(CCO)CCO)nc1 | > 100 | > 100 | > 100 | > 100 | > 100 | > 100 | > 100 | > 100 | > 100 | > 100 | > 100 | > 100 | > 100 | > 100 | > 100 | > 100 | > 100 | > 100 | > 100 | > 100
CC(NNC(=S)N1CCCC1)c1cccnn1 (centres undefined) | > 70 | > 100 | > 100 | 4.68 | > 100 | 0.671 | > 100 | > 100 | 8.71 | > 31.6 | – | > 76.9 | 4.36 | > 56.1 | > 100 | – | > 100 | > 100 | > 31.5 | 5.33
O=C(NCCCN1CCN(CCCNC(=O)c2cc(-c3ccccc3)nc3ccccc23)CC1)c1cc(-c2ccccc2)nc2ccccc12 | > 67.1 | 20.4 | 6.06 | 28.8 | > 62.6 | > 60 | 30.7 | > 100 | > 78.2 | 3.99 | 51.5 | > 58.4 | 41.5 | 51.1 | 33.9 | > 60.2 | > 57.8 | > 29.5 | 60.2 | 53.5
Cc1nnc(N)nc1C/C=C/C(C)Sc1ccc(Cl)cc1 (centres undefined) | 38.1 | > 100 | 31.3 | 29 | > 41.9 | 22.2 | > 42 | 36 | 36.9 | 45 | 23.3 | 48 | – | > 67.2 | 42.4 | 39.9 | > 70 | > 48 | 35.9 | 33.2
COc1cccc(C2c3cc4c(cc3OC(NNC(N)=O)C2C)OCO4)c1OC (centres undefined) | 83.1 | 82.7 | > 100 | > 100 | 81.6 | 49.9 | 68.2 | 77.8 | > 100 | 72.7 | > 100 | – | 37.5 | > 100 | > 100 | > 100 | 46.1 | > 100 | 86.3 | > 100
CC1=C(N2CC2)C(=O)C(C)=C(N2CC2)C1=O | 4.69 | 2.9 | 0.362 | 0.445 | > 100 | 0.329 | 0.994 | 0.19 | 3.3 | 1.26 | 2.68 | 2.02 | 0.808 | 5.14 | 15.5 | 1.08 | 9.8 | 3.41 | 1.5 | 1.46
O=C(N/N=C\c1ccc(Cl)cc1)Nc1cccc2ccccc12 | > 100 | > 21.3 | > 100 | 4.92 | > 59.1 | 9.99 | 10.1 | 98.9 | > 100 | > 100 | > 100 | 6.84 | 35.7 | > 100 | > 100 | > 26.1 | > 100 | > 76.6 | 17 | 22.3
COC1=C(OC)C(=O)C(C/C=C/c2c(Cl)nc3sccn23)=C(C)C1=O | 40.3 | 19.8 | 39.3 | 36.1 | 25.3 | 37.5 | 25.6 | 7.76 | 38 | 33.7 | 25.1 | 13.9 | 31.7 | 28.8 | 84.2 | 38 | 27.5 | 46 | 34.9 | 52.8
CCCCCCC(O)C(=O)OC1C2C(CC1(C)C)C(O)C13OC1C(O)C1(CO1)[C@@]23C (some centres undefined) | > 100 | > 100 | – | – | > 100 | 59.4 | > 100 | > 100 | > 100 | > 100 | > 100 | > 100 | – | > 100 | > 100 | 53.6 | > 100 | – | > 100 | > 100
Cc1ccc(/C=C2\CCS(=O)(=O)c3ccccc3C2=O)cc1 | 27.7 | 77.2 | 28.9 | 28.6 | 34.6 | 44.2 | 30.8 | 29.6 | 90.7 | 39.1 | 34.9 | 34.8 | > 100 | 34 | 32.6 | 51.6 | > 100 | 47.9 | 30.9 | 34.8
O=c1[nH]nc(-c2ccccc2)n1-n1cccc1 | > 100 | > 100 | > 100 | > 100 | > 100 | > 100 | > 100 | – | > 100 | > 100 | > 100 | > 100 | – | > 100 | > 100 | > 100 | > 100 | > 100 | > 100 | > 100
Cn1c2ccccc2c(=NNc2ccc(S(=O)(=O)N=C(N)N)cc2)c2ccccc21 | 32.3 | 25.1 | 19.8 | 20.1 | 32.4 | 10.8 | 21.6 | 26.9 | 20.2 | – | 25 | 16.8 | 27.3 | 29.1 | 35.6 | 22.1 | 43.4 | 21.1 | 26.5 | 12.9
